The results in this text go back to the supplement of paper PMC11208160.
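Note: IS621 recombinase and bridge RNA in Escherichia coli cells.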

This series in a line: recombinant barcode read abundance after kanamycin selection (control-corrected) (log10(CPM+1)); higher = more efficient recombination; sequences stand for … in AGTGCAGAGAAAATCGGCCAGTTTTCTCTGCCTGCAGTCCGCATGCCGT…AGATTTATGCAGCGGACTGCCTTTCTCCCAAAGTGATAAACCGGACAGTATCATGGACCGGTTTTCCCGGTAATCCGTATTTGCAAGGTTGGTTTCACT; site = the 11-nt target. Put shortly: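 Reported as log10(CPM+1), each value stands for recombination efficiency. That efficiency is the averaged, control-corrected counts per million of barcodes found at recombinant junctions. Cells from a pooled E. coli library pairing targets with IS621 bridge RNA target-binding loops were plated twice on chloramphenicol/ampicillin LB agar (control) and twice on chloramphenicol/ampicillin/kanamycin with 0.1 mM IPTG.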
On to “CATCGGACTTGGGTTCTAACCTGTTGCTA (site CATCGGACTTA)”, for which the “recombinant barcode read abundance (log10)” value is 0.834. For “CATCGGACTTGGGTTCTAACCTGTTGCTA (site CATTGTACTTA)”, the “recombinant barcode read abundance (log10)” value was determined as 0.347. In the case of “CATCGGGCTTGGGTTCTAACCTGTTGCAG (site CATCGGGCTCT)”, the “recombinant barcode read abundance (log10)” value was determined as 1.43. As for “CATCGGGCTTGGGTTCTAACCTGTTGCAG (site CCTCGGGCTCT)”, the “recombinant barcode read abundance (log10)” value was determined as 0.0832. Take “CATCGGGCTTGGGTTCTAACCTGTTGCAG (site CGTCGGGCTCT)”: the “recombinant barcode read abundance (log10)” value was determined as 0.00527. With “CATCGGGCTTGGGTTCTAACCTGTTGCAG (site CTTCGGGCTCT)”, the “recombinant barcode read abundance (log10)” value is 0.292.

With “CATGATGCTTGGGTTCTAACCTGTTGCCT (site CAAGATGCTAG)”, the “recombinant barcode read abundance (log10)” value amounted to 0.256. For the sequence “CATGATGCTTGGGTTCTAACCTGTTGCCT (site CACGATGCTAG)”, the “recombinant barcode read abundance (log10)” value stood at 0.487.

As for “CATGATGCTTGGGTTCTAACCTGTTGCCT (site CAGGATGCTAG)”, the “recombinant barcode read abundance (log10)” value was 0.00956.

Consider “CATGATGCTTGGGTTCTAACCTGTTGCCT (site CATGATGCTAG)”, for which the “recombinant barcode read abundance (log10)” value turned out to be 1.86. Consider “CATGCCGCTTGGGTTCTAACCTGTTGCCT (site CATGACACTAG)”, for which the “recombinant barcode read abundance (log10)” value was found to be 0.226. The result for “CATGCCGCTTGGGTTCTAACCTGTTGCCT (site CATGCCGCTAG)” reads 1.73. On to “CATGGGCCTTGGGTTCTAACCTGTTGCCT (site CATGGGCCTAG)”, for which the “recombinant barcode read abundance (log10)” value turned out to be 0.0279. Regarding “CATGGGCCTTGGGTTCTAACCTGTTGCCT (site CCTGGGCCTAG)”, the “recombinant barcode read abundance (log10)” value was 0.0246. The figure for “CATGGGCCTTGGGTTCTAACCTGTTGCCT (site CGTGGGCCTAG)” is 0.151; for “CATGGGCCTTGGGTTCTAACCTGTTGCCT (site CTTGGGCCTAG)” it is 0.174; for “CATGGGTCTTGGGTTCTAACCTGTTGCCT (site CATGGGTCTAG)” it is 1.45. On to “CATGGGTCTTGGGTTCTAACCTGTTGCCT (site CCTGGGTCTAA)”, for which the “recombinant barcode read abundance (log10)” value turned out to be 0.0946.

For “CATTAACCTTGGGTTCTAACCTGTTGCCT (site CATTAACCTAG)”, the “recombinant barcode read abundance (log10)” value was determined as 1.15.

Regarding “CATTAACCTTGGGTTCTAACCTGTTGCCT (site TACTAACCTAG)”, the “recombinant barcode read abundance (log10)” value is 0.208. The figure for “CATTACTCTTGGGTTCTAACCTGTTGCTT (site CATTACTCTAA)” is 0.622; for “CATTACTCTTGGGTTCTAACCTGTTGCTT (site CTTTCCTCTAA)” it is 0.032; for “CATTCACCTTGGGTTCTAACCTGTTGCCT (site AATTCACCTAG)” it is 0.153.

As for “CATTCACCTTGGGTTCTAACCTGTTGCCT (site CATTCACCTAG)”, the “recombinant barcode read abundance (log10)” value came out at 0.39.

Turning to “CATTCACCTTGGGTTCTAACCTGTTGCCT (site GATTCACCTAG)”, the “recombinant barcode read abundance (log10)” value was 0.0621. In the case of “CATTCACCTTGGGTTCTAACCTGTTGCCT (site TATTCACCTAG)”, the “recombinant barcode read abundance (log10)” value came to 0.111. As to “CATTTAGCTTGGGTTCTAACCTGTTGCGG (site AGGGCGCCTAA)”, the “recombinant barcode read abundance (log10)” value came to 0.0282. “CATTTAGCTTGGGTTCTAACCTGTTGCGG (site CATTTAGCTCC)”: the “recombinant barcode read abundance (log10)” value came out at 1.06.

For “CATTTCCCTTGGGTTCTAACCTGTTGCCT (site CATTTCCCTAA)”, the “recombinant barcode read abundance (log10)” value was found to be 0.0164.

With “CATTTCCCTTGGGTTCTAACCTGTTGCCT (site CATTTCCCTAG)”, the “recombinant barcode read abundance (log10)” value worked out at 0.23.

Take “CCAAATCCTTGGGTTCTAACCTGTTGCAT (site CCAAATCCTAT)”: the “recombinant barcode read abundance (log10)” value stood at 0.189.

For “CCAAATCCTTGGGTTCTAACCTGTTGCAT (site TGTCTAGCTCC)”, the “recombinant barcode read abundance (log10)” value is 0.697. Consider “CCAAGCACTTGGGTTCTAACCTGTTGCCT (site CCAAGCACTAG)”, for which the “recombinant barcode read abundance (log10)” value turned out to be 0.624. On to “CCAAGCACTTGGGTTCTAACCTGTTGCCT (site CCAAGCCCTAG)”, for which the “recombinant barcode read abundance (log10)” value was found to be 0.138. As to “CCAAGCACTTGGGTTCTAACCTGTTGCCT (site CCAAGCGCTAG)”, the “recombinant barcode read abundance (log10)” value is 0.0822. For “CCAAGCACTTGGGTTCTAACCTGTTGCCT (site CCAAGCTCTAG)”, the “recombinant barcode read abundance (log10)” value came to 0.172. The result for “CCAAGGCCTTGGGTTCTAACCTGTTGCCG (site CCAAGGCCTCG)” reads 0.0466; that for “CCAAGGCCTTGGGTTCTAACCTGTTGCCG (site TTCGCATCTAA)”, 0.208.

As to “CCAAGGGCTTGGGTTCTAACCTGTTGCGG (site CCAAGGGCTCA)”, the “recombinant barcode read abundance (log10)” value was found to be 0.628. “CCAAGGGCTTGGGTTCTAACCTGTTGCGG (site CCAAGGGCTCC)”: the “recombinant barcode read abundance (log10)” value turned out to be 2.52.

On to “CCAAGGGCTTGGGTTCTAACCTGTTGCGG (site CCAAGGGCTCG)”, for which the “recombinant barcode read abundance (log10)” value was 0.094. The figure for “CCAAGGGCTTGGGTTCTAACCTGTTGCGG (site CCAAGGGCTCT)” is 2.18. For “CCAAGTACTTGGGTTCTAACCTGTTGCTT (site CCAAGTACTAA)”, the “recombinant barcode read abundance (log10)” value came out at 0.387. As for “CCAAGTACTTGGGTTCTAACCTGTTGCTT (site CCACGAACTAA)”, the “recombinant barcode read abundance (log10)” value is 0.106. As for “CCAATGTCTTGGGTTCTAACCTGTTGCGT (site CCAATGTCTAC)”, the “recombinant barcode read abundance (log10)” value stood at 1.03. In the case of “CCAATGTCTTGGGTTCTAACCTGTTGCGT (site GTTCGTCCTTG)”, the “recombinant barcode read abundance (log10)” value stood at 0.047. Consider “CCACACACTTGGGTTCTAACCTGTTGCCT (site CAATACACTAG)”, for which the “recombinant barcode read abundance (log10)” value came out at 0.0103. With “CCACACACTTGGGTTCTAACCTGTTGCCT (site CCACACACTAG)”, the “recombinant barcode read abundance (log10)” value was found to be 0.345. The figure for “CCACCGACTTGGGTTCTAACCTGTTGCCT (site CCACCGACTAG)” is 0.0699; for “CCACCGACTTGGGTTCTAACCTGTTGCCT (site GCACCAACTAG)” it is 0.257.

“CCACCGCCTTGGGTTCTAACCTGTTGCCT (site ACACCGCCTAG)”: the “recombinant barcode read abundance (log10)” value was found to be 0.0161. As to “CCACCGCCTTGGGTTCTAACCTGTTGCCT (site CCACCGCCTAG)”, the “recombinant barcode read abundance (log10)” value was 0.139. For “CCACCGCCTTGGGTTCTAACCTGTTGCCT (site GCACCGCCTAG)”, the “recombinant barcode read abundance (log10)” value stood at 0.211. “CCACCGCCTTGGGTTCTAACCTGTTGCCT (site TCACCGCCTAG)”: the “recombinant barcode read abundance (log10)” value is 0.0912. In the case of “CCACGTTCTTGGGTTCTAACCTGTTGCCT (site CCACGTTCTAG)”, the “recombinant barcode read abundance (log10)” value worked out at 0.181.

As to “CCACGTTCTTGGGTTCTAACCTGTTGCCT (site CTACGTTCTAG)”, the “recombinant barcode read abundance (log10)” value came to 0.0541. “CCACTAGCTTGGGTTCTAACCTGTTGCAG (site AATGGGTCTAA)”: the “recombinant barcode read abundance (log10)” value is 0. The result for “CCACTAGCTTGGGTTCTAACCTGTTGCAG (site CCACTAGCTCT)” reads 0.85; that for “CCACTGCCTTGGGTTCTAACCTGTTGCCT (site CCACTACCTAG)”, 0.734.

For the sequence “CCACTGCCTTGGGTTCTAACCTGTTGCCT (site CCACTCCCTAG)”, the “recombinant barcode read abundance (log10)” value is 0.229. The result for “CCACTGCCTTGGGTTCTAACCTGTTGCCT (site CCACTGCCTAG)” reads 0.862; that for “CCACTGCCTTGGGTTCTAACCTGTTGCCT (site CCACTTCCTAG)”, 0.0699; that for “CCAGAGTCTTGGGTTCTAACCTGTTGCCG (site CCAGAGTCTCG)”, 0.288. Regarding “CCAGAGTCTTGGGTTCTAACCTGTTGCCG (site CCAGAGTCTTG)”, the “recombinant barcode read abundance (log10)” value was determined as 0.152. As to “CCAGATTCTTGGGTTCTAACCTGTTGCCT (site CAAGATTCTAG)”, the “recombinant barcode read abundance (log10)” value is 0.154.

As for “CCAGATTCTTGGGTTCTAACCTGTTGCCT (site CCAGATTCTAG)”, the “recombinant barcode read abundance (log10)” value is 0.206. In the case of “CCAGATTCTTGGGTTCTAACCTGTTGCCT (site CGAGATTCTAG)”, the “recombinant barcode read abundance (log10)” value was 0.297. The figure for “CCAGATTCTTGGGTTCTAACCTGTTGCCT (site CTAGATTCTAG)” is 0.144; for “CCAGTAGCTTGGGTTCTAACCTGTTGCGG (site CCAGAAGCTAC)” it is 0.0355.

In the case of “CCAGTAGCTTGGGTTCTAACCTGTTGCGG (site CCAGTAGCTCC)”, the “recombinant barcode read abundance (log10)” value was found to be 1.01. Turning to “CCAGTATCTTGGGTTCTAACCTGTTGCAT (site CCAGTATCTAT)”, the “recombinant barcode read abundance (log10)” value stood at 0.796. With “CCAGTATCTTGGGTTCTAACCTGTTGCAT (site TAGCGGCCTCC)”, the “recombinant barcode read abundance (log10)” value was found to be 0.0866. “CCATAGGCTTGGGTTCTAACCTGTTGCTG (site CCATAGGCTCA)”: the “recombinant barcode read abundance (log10)” value came to 0.732. In the case of “CCATAGGCTTGGGTTCTAACCTGTTGCTG (site GAGAGAACTAG)”, the “recombinant barcode read abundance (log10)” value stood at 0.0117. Turning to “CCATATGCTTGGGTTCTAACCTGTTGCCT (site AACACGACTGA)”, the “recombinant barcode read abundance (log10)” value amounted to 0.0524.

On to “CCATATGCTTGGGTTCTAACCTGTTGCCT (site CCATATGCTAG)”, for which the “recombinant barcode read abundance (log10)” value is 0.148. Turning to “CCATTCCCTTGGGTTCTAACCTGTTGCTA (site CCATTCCCTTA)”, the “recombinant barcode read abundance (log10)” value came out at 0.43.
